Measured values from patent US10912760B1, “Method of inhibiting cancer metastasis” (Chung Shan Medical University, priority 2019, dated 2021).

Legend:
[1] = system: breast cancer cells; conditions: reported; cited from earlier work
[2] = system: colon cancer cells (DLD-1, SW480 and SW620); assay: Soft agar colony formation assay; assay type: cell-based, human; conditions: 1 week
Experimental: FIG. 1E: Effect of Camphorataimide B on colony formation of colon cancer cells. The three colon cancer cells were pretreated with indicated concentration of Camphorataimide B for 24 hours, seeded on soft agar plates, and then incubated for one week. After the treatments, the number of colonies was quantitated. Quantitative results were presented as means±SD. Three independent experiments were performed for statistical analysis. * and ** represented P<0.01 and P<0.001 as compared to control, respectively.
Cells suspended in agarose medium (10% FBS and 0.3 agarose in medium) containing serial concentrations of Camphorataimide Bwere plated onto 6-well plate which was pre-coated with a layer of solidified agarose (10% FBS and 0.6% agarose in medium), and then incubated at 37° C. in a humidified atmosphere containing 5% CO2 for 1 week. At the end of incubation, cell colonies were fixed, stained with crystal violet, and then photographed using Nikon Eclipse TE2000-U microscope equipped with a Nikon Digital Camera DXM1200 and those colonies with size greater than 0.1 mm were counted.

[3] = system: colon cancer cells (DLD-1, SW480 and SW620); assay: Cell invasion assay (Matrigel coated transwell); assay type: cell-based, human
Experimental: (§1) FIG. 1A: Effect of Camphorataimide B on migration and invasion of colon cancer cells. For migration assay, three colon cancer cells (DLD-1, SW480 and SW620) were pretreated with the indicated concentrations of Camphoratamide B for 24 hours, seeded onto transwell inserts, and then incubated for 12 hours. For invasion assay, the three colon cancer cells were pretreated with the indicated concentrations of Camphorataimide B for 24 hours, seeded onto Matrigel coated transwell inserts, and then incubated for 16 hours. After the treatments, numbers of cell on the lower surface membrane were stained, photographed and counted for quantitation of migrated and invaded cells.
(§2) FIG. 1B: Quantitation of effect of Camphorataimide B on migration and invasion of colon cancer cells. Quantitative results were presented as means±SD. Three independent experiments were performed for statistical analysis. * and ** represented P<0.01 and P<0.001 as compared to control, respectively.
(§3) Cells were pretreated with Camphorataimide B for 24 hours, harvested and then seeded on to 24-well cell culture inserts (8 μm pore size, Millipore). […] The stained cells were photographed and quantified form five random fields under microscopic examination. […] Cells invaded into the lower surface of the insert were quantitated as described earlier.

[4] = system: F-actin in colon cancer cells (DLD-1, SW480 and SW620); assay: Immunofluorescence (phalloidin) staining of F-actin cytoskeleton; assay type: cell-based, human; conditions: confocal microscope, compared to control
Experimental: FIG. 1F: Effect of Camphorataimide B on cytoskeleton structure of colon cancer cells. The treated cells were seeded on a matrix-coated dish, and then F-actin (red) was detected by immunofluorescence staining, while the nuclei (blue) were detected by DAPI staining. Fluorescent images were acquired by using confocal microscopy. Scale bars, […].
Adherent cells were fixed on the glass slides using 4% ice-cold formaldehyde and reacted with blocking buffer and 0.5% Triton X-100 for 1 hour at room temperature. The reacted cells were incubated with primary antibodies overnight at 4° C. The bound primary antibodies were detected using Alexa Fluor-labeled secondary antibody (Jackson ImmunoResearch Laboratories, West Grove, Pa., USA). Alexa Fluor-conjugated phalloidin (Cell Signaling) was used for detection of polymerized F-actin microfilaments. Fluorescence image was acquired by using a laser scanning confocal microscope system (Zeiss 510 meta, Zeiss, Oberkochen, Germany).

[5] = system: DLD-1 cells; assay: Ex vivo xenograft mice model: pretreated DLD-1 cells injected into spleen and peritoneal site; assay type: in vivo, Balb/c nude mice
Experimental: Luciferase expressing DLD-1 cells were pretreated with or without 30 μM Camphorataimide B for 24 hours, and then injected into the abdomen and spleen of Balb/c nude mice (five mice for each group), 35 days after implantation, the representative ex vivo images for liver and abdominal metastasis burden in xenografted animals were monitored using bioluminescent imaging (BLI).
FIG. 2B: Quantitation of results of FIG. 2A. Luciferase expressing DLD-1 cells were pretreated with or without 30 μM Camphorataimide B for 24 hours, and then injected into the abdomen and spleen of Balb/c nude mice. After 35 days implantation, the mice were photographed and tumor metastatic capability was analyzed. * and ** represented P<0.01 and P<0.001 as compared to untreated group, respectively.
FIG. 2C: Camphorataimide B suppressed hepatic and abdominal metastasis of DLD-1 cells in ex vivo xenograft mice model. DLD-1 cells were pretreated with or without 30 μM Camphorataimide B for 24 hours, and then spleeny and intraperitoneally injected into Balb/c mice, respectively. After 35 days, the mice were sacrificed and the tissues were obtained and photographed.
FIG. 2D: Quantitation of results of FIG. 2C. DLD-1 cells were pretreated with or without 30 μM Camphorataimide B for 24 hours, and then spleeny and intraperitoneally injected into Balb/c mice, respectively. After 35 days, the mice were sacrificed and photographed. Total weight of tumor foci from the metastatic tissues were presented and quantitated. *, P<0.01 and P<0.001 between the indicated groups.
FIG. 2E: Camphorataimide B suppressed metastasis in ex vivo xenograft mice model. […]
(§4) Male Balb/c nude mice aged four weeks were purchased from National Laboratory Animal Center of Taiwan (Taipei City, Taiwan) and maintained under supervision of the Institutional Animal Care and Use Committee at Chung Shan Medical University. […] The liver metastasis burden was monitored weekly by bioluminescence imaging (BLI). […]

[6] = system: Luciferase expressing DLD-1 cells; assay: In vivo xenograft mice model: oral treatment after Luc-DLD-1 injection; parameters: species or system Balb/c nude mice
Experimental: Luciferase expressing DLD-1 cells were suspended in phosphate buffered saline and injected into the spleen and peritoneal site of 5-week-old male Balb/c nude mice, respectively. After one week, the mice were orally administrated with 10 or 20 mg/kg Camphorataimide B or saline vehicle for one month (five mice for each group). IVIS luciferase in vivo images of liver and abdominal metastasis burden were monitored using bioluminescent imaging (BLI). Data represented mean±SD. * and ** represented P<0.01 and P<0.001 between the indicated groups, respectively.
FIG. 2G: Camphorataimide B suppressed hepatic and abdominal metastasis of DLD-1 cells in in vivo xenograft mice model. Luciferase expressing DLD-1 cells were suspended in phosphate buffered saline and injected into the spleen and peritoneal site of Balb/c nude mice, respectively. After one week, the mice were orally administrated with 10 or 20 mg/kg Camphorataimide B or saline vehicle (five mice for each group). After one month, the mice were sacrificed and the tissues were obtained and photographed.
FIG. 2H: Quantitation of results of FIG. 2G. Luciferase expressing DLD-1 cells were suspended in phosphate buffered saline and injected into the spleen and peritoneal site of Balb/c nude mice, respectively. After one week, the mice were orally administrated with 10 or 20 mg/kg Camphorataimide B or saline vehicle (five mice for each group). After 35 days, the mice were sacrificed and photographed. Total weight of tumor foci from the metastatic tissues were presented and quantitated. * and ** represented P<0.01 and P<0.001 between the indicated groups, respectively.
as §4

[7] = system: colon cancer cells (DLD-1, SW480 and SW620); assay: Cell migration assay (transwell); assay type: cell-based, human
Experimental: as §1, §2, §3

[8] = system: colon cancer cells (DLD-1, SW480 and SW620); assay: Cell adhesion assay; assay type: cell-based, human; conditions: pretreated 24 hours, Matrigel coated plates, 8 hours
Experimental: FIG. 1C: Effect of Camphorataimide B on adhesion of colon cancer cells. The three colon cancer cells were pretreated with the indicated concentrations of Camphorataimide B for 24 hours, seeded on a matrix coated monolayer dish, and then incubated for 8 hours. After washing with PBS, the attached cells were photographed and quantitated.
FIG. 1D: Quantitation of effect of Camphorataimide B on adhesion of colon cancer cells. Quantitative results were presented as means±SD. Three independent experiments were performed for statistical analysis. * and ** represented P<0.01 and P<0.001 as compared to control, respectively.
Cells were incubated with serial concentration of Camphorataimide B in a complete medium for 24 hours, transferred in to 12-well Matrigel coated plates (10^5 cells per well), and incubated at 37° C. for 8 hours. After the incubation, non-adherent cells were removed by PBS washing and the attached cells were photographed and quantitated using a cell counter.

[9] = 20 and 30 μM, P<0.01 as compared to control

## CC(C)=CCOc1ccc(C2=C(CC(C)C)C(=O)NC2=O)cc1 [Camphorataimide B]
[1]
  tumor growth in breast cancer cells: can inhibit tumor growth
[2]
  colony numbers: significantly reduced
[3]; [9]
  inhibition of invasiveness: significant
[3]; pretreated 24 hours, indicated concentrations, Matrigel transwell 16 hours
  invasiveness of colon cancer cells: dose-dependently inhibited
[4]
  regular architecture and expression level of F-actin: disrupted and decreased
[5]; DLD-1 cells pretreated with 30 μM for 24 hours, after 35 days
  attachment to colon tissue, number and size of tumors: rarely attached to colon tissue and formed fewer number and smaller size of tumors
[5]; DLD-1 cells pretreated with 30 μM for 24 hours, day 35, compared to untreated cells
  hepatic and abdominal metastatic lesion (hematoxylin and eosin staining): significantly diminished
[5]; Luc-DLD-1 cells pretreated with 30 μM for 24 hours, 35 days after implantation
  liver and abdominal metastasis burden (bioluminescent imaging): suppressed liver and abdominal metastasis
[6]; oral 10 and 20 mg/kg every three days for 1 month
  tumor size by bioluminescent imaging: smaller tumors than tumor group
[6]; oral 10 and 20 mg/kg every three days for 1 month, versus untreated tumors
  tumor growth and metastatic ability: grew slowly and less metastatic ability than untreated tumors
[6]; oral 10 and 20 mg/kg every three days, after 35 days
  increased gross weight of tumor: notably inhibited
[7]; [9]
  inhibition of migration: significant
[7]; pretreated 24 hours, indicated concentrations, transwell 12 hours
  migration of colon cancer cells: dose-dependently inhibited
[8]
  adherent cell numbers: significantly reduced
